Data from publication PMC6685790 (Nature structural & molecular biology, 2008).
Changes are numbered by the printed parent chain. Where two headings read alike, the source gives them in different places.

How the values were obtained:
GlyR α1^F108A = target: T1, GlyR α1^F108A (Homo sapiens, UniProt P23415, F136A); format: cell-based
T1 sequence (P23415 29-457 F136A): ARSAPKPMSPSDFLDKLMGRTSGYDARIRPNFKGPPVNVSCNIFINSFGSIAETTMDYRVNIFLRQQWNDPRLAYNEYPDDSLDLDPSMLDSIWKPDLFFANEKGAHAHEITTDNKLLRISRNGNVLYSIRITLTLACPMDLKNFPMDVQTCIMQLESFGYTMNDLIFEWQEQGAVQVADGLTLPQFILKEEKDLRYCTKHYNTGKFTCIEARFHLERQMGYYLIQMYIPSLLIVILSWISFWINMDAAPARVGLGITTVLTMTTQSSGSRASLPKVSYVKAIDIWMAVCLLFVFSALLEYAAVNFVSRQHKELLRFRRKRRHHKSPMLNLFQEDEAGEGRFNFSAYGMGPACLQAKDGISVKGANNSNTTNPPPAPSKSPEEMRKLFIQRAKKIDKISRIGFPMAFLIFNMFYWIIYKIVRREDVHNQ

[1] = tested on: Zn^2+-activated GlyRs (ZAGs); format: cell-based, human
GlyR α1^F99A = target: T2, GlyR α1^F99A (Homo sapiens, UniProt P23415, F127A); test: Whole-cell recording of substituted GlyR in HEK cells; format: cell-based
T2 sequence (P23415 29-457 F127A): T1 sequence (P23415 29-457 F136A) with F99A, A108F

GlyR α1^L98A = target: T3, GlyR α1^L98A (Homo sapiens, UniProt P23415, L126A); test: as above; format: cell-based
T3 sequence (P23415 29-457 L126A): T1 sequence (P23415 29-457 F136A) with L98A, A108F

GlyR α1^L134A = target: T4, GlyR α1^L134A (Homo sapiens, UniProt P23415, L162A); test: as above; format: cell-based
T4 sequence (P23415 29-457 L162A): T1 sequence (P23415 29-457 F136A) with A108F, L134A

[2] = read-out: Zn^2+ complexation KD; ref [52]; cited from earlier work

Compound: N#C[B-](c1ccccc1)(c1ccccc1)c1ccccc1 [CTB, cyanotriphenylborate]
- Effect on Zn^2+-activated currents (GlyR α1^F108A): abolished
- Standing current remaining after block of spontaneous leak ([1]; CTB 20 μM, considered full abolition of receptor-mediated leak): less than 50 pA

Compound: c1ccc(CN(CCN(Cc2ccccn2)Cc2ccccn2)Cc2ccccn2)nc1 [TPEN, N,N,N’,N’-tetrakis-(2-pyridylmethyl)-ethylenediamine]
- Effect on leak current (component caused by Zn^2+ contamination) ([1]; TPEN 100 μM, α1^L98A, α1^F99A, α1^F108A, α1^L134A): reduced

Compound: O=C1C[C@@H]2OCC=C3CN4CC[C@]56c7ccccc7N1[C@H]5[C@H]2[C@H]3C[C@H]46 [strychnine]
- Loss of potency inhibiting leak current compared to glycine-activated currents [1]: 10 fold
- Attenuation of leak current (GlyR α1^F99A): 100%
- Effect on Zn^2+ activation (GlyR α1^L98A): inhibited
- Attenuation of leak current (GlyR α1^L134A): 90 ± 4%

Compound: O=C(O)CNC(CO)(CO)CO [tricine]
- Kd [2]: 10 µM

Compound: picrotoxin
- Effect on Zn^2+ activation (GlyR α1^L98A; picrotoxin, α1^L98A, Zn^2+ EC50-activated currents (Fig. 2f)): inhibited
